From patent publication US20040204463A1, “N-aryl-2-oxazolidinone-5-carboxamides and their derivatives” (priority 2003, published 2004)
In brackets after ≈: the same amount, converted by molar mass. Counter-ions that a name gives are not always drawn.

Experiments:
SPNE 9912 = assay: In vitro MIC by standard agar dilution method, SPNE 9912; assay type: cell-based; conditions: agar dilution, Mueller Hinton agar, incubated overnight at 35° C.; lowest concentration that inhibits visible growth; read-out: SPNE 9912 MIC (Minimum Inhibitory Concentration)
Description: (§1) The oxazolidinone antibacterial agents of this invention have useful activity against a variety of organisms. The in vitro activity of compounds of this invention can be assessed by standard testing procedures such as the determination of minimum inhibitory concentration (MIC) by agar dilution as described in “Approved Standard. Methods for Dilution Antimicrobial Susceptibility Tests for Bacteria That Grow Aerobically”, 3rd. ed., published 1993 by the National Committee for Clinical Laboratory Standards, Villanova, Pa., USA.
(§2) The in vitro MICs of test compounds were determined by a standard agar dilution method. A stock drug solution of each analog was prepared in the preferred solvent, usually DMSO: H2O (1:3). Serial 2-fold dilutions of each sample are made using 1.0 ml aliquots of sterile distilled water. To each 1.0 ml aliquot of drug was added 9 ml of molten Mueller Hinton agar medium. The drug-supplemented agar was mixed, poured into 15×100 mm petri dishes, and allowed to solidify and dry prior to inoculation.
(§3) Vials of each of the test organisms are maintained frozen in the vapor phase of a liquid nitrogen freezer. Test cultures are grown overnight at 35° C. on the medium appropriate for the organism. Colonies are harvested with a sterile swab, and cell suspensions are prepared in Trypticase Soy broth (TSB) to equal the turbidity of a 0.5 McFarland standard. A 1:20 dilution of each suspension was made in TSB. The plates containing the drug supplemented agar are inoculated with a 0.001 ml drop of the cell suspension using a Steers replicator, yielding approximately 10^4 to 10^5 cells per spot. The plates are incubated overnight at 35° C.
(§4) Following incubation the Minimum Inhibitory Concentration (MIC μg/ml), the lowest concentration of drug that inhibits visible growth of the organism, was read and recorded.

SAUR 9213 = assay: In vitro MIC by standard agar dilution method, SAUR 9213; assay type: cell-based, S. aureus; conditions: Staphylococcus aureus; agar dilution, Mueller Hinton agar, incubated overnight at 35° C.; lowest concentration that inhibits visible growth; read-out: SAUR 9213 MIC (Minimum Inhibitory Concentration)
Description: as §1, §2, §3, §4

HINF 30063 = assay: In vitro MIC by standard agar dilution method, HINF 30063; assay type: cell-based, H. influenzae; conditions: Haemophilus influenzae; agar dilution, Mueller Hinton agar, incubated overnight at 35° C.; lowest concentration that inhibits visible growth; read-out: HINF 30063 MIC (Minimum Inhibitory Concentration)
Description: as §1, §2, §3, §4

MIC (SPNE 9912) [µg/mL]	MIC (SAUR 9213) [µg/mL]	MIC (HINF 30063) [µg/mL]	Structure (SMILES)
2	> 16	> 16	CC(=O)NC[C@H]1CN(c2ccc(N3CCN(C(=O)CCCC#Cc4ccc(/C(C)=N/O)cc4)CC3)c(F)c2)C(=O)O1 [Compound 15, N-[((5S)-3-{3-fluoro-4-[4-(6-{4-[(1E)-N-hydroxyethan-imidoyl]-phenyl}hex-5-ynoyl)piperazin-1-yl]phenyl}-2-oxo-1,3-oxazolidin-5-yl)methyl]-acetamide, HCl salt]
2 (≈ 3.65 µM)	> 64	> 64	CC(=O)NC[C@H]1CN(c2ccc(N3CCN(C(=O)CCCC#Cc4ccc(C(C)=O)cc4)CC3)c(F)c2)C(=O)O1 [Compound 17, N-{[(5S)-3-(4-{4-[6-(4-acetylphenyl)hex-5-ynoyl]piperazin-1-yl}-3-fluorophenyl)-2-oxo-1,3-oxazolidin-5-yl]methyl}acetamide]
2 (≈ 3.41 µM)	16 (≈ 27.3 µM)	> 64	CC(=O)NC[C@H]1CN(c2ccc(N3CCN(C(=O)CCCC#Cc4ccc(Cn5ccnc5)cc4)CC3)c(F)c2)C(=O)O1 [Compound 18, N-({(5S)-3-[3-fluoro-4-(4-{6-[4-(1H-imidazol-1-ylmethyl)phenyl]hex-5-ynoyl}piperazin-1-yl)phenyl]-2-oxo-1,3-oxazolidin-5-yl}methyl)acetamide]
0.25 (≈ 0.455 µM)	4 (≈ 7.28 µM)	32 (≈ 58.2 µM)	CNCc1ccc(C#CCCCC(=O)N2CCN(c3ccc(N4C[C@H](CNC(C)=O)OC4=O)cc3F)CC2)cc1 [Compound 19, N-[((5S)-3-{3-fluoro-4-[4-(6-{4-[(methylamino)methyl]phenyl}hex-5-ynoyl)piperazin-1-yl]phenyl}-2-oxo-1,3-oxazolidin-5-yl)methyl]acetamide]
2 (≈ 3.94 µM)	4 (≈ 7.88 µM)	64 (≈ 126 µM)	CC(=O)NC[C@H]1CN(c2ccc(N3CCN(C(=O)CCC#Cc4ccc(N)cc4)CC3)c(F)c2)C(=O)O1 [Compound 20, N-{[(5S)-3-(4-{4-[5-(4-aminophenyl)pent-4-ynoyl]piperazin-1-yl}-3-fluorophenyl)-2-oxo-1,3-oxazolidin-5-yl]methyl}acetamide]
0.25 (≈ 0.455 µM)	4 (≈ 7.28 µM)	32 (≈ 58.2 µM)	CC(=O)NC[C@H]1CN(c2ccc(N3CCN(C(=O)CCCCC#Cc4ccc(CN)cc4)CC3)c(F)c2)C(=O)O1 [Compound 23, N-({(5S)-3-[4-(4-{7-[4-(aminomethyl)phenyl]hept-6-ynoyl}piperazin-1-yl)-3-fluorophenyl]-2-oxo-1,3-oxazolidin-5-yl}methyl)acetamide]
2 (≈ 3.73 µM)	8 (≈ 14.9 µM)	> 64	CC(=O)NC[C@H]1CN(c2ccc(N3CCN(C(=O)CCCCC#Cc4ccc(O)cc4)CC3)c(F)c2)C(=O)O1 [Compound 24, N-{[(5S)-3-(3-fluoro-4-{4-[7-(4-hydroxyphenyl)hept-6-ynoyl]piperazin-1-yl}phenyl)-2-oxo-1,3-oxazolidin-5-yl]methyl}acetamide]
0.25 (≈ 0.467 µM)	4 (≈ 7.47 µM)	16 (≈ 29.9 µM)	CC(=O)NC[C@H]1CN(c2ccc(N3CCN(C(=O)CCCC#Cc4ccc(CN)cc4)CC3)c(F)c2)C(=O)O1 [Compound 26, N-({(5S)-3-[4-(4-{6-[4-(aminomethyl)phenyl]hex-5-ynoyl}piperazin-1-yl)-3-fluorophenyl]-2-oxo-1,3-oxazolidin-5-yl}methyl)acetamide]
2 (≈ 3.64 µM)	4 (≈ 7.28 µM)	64 (≈ 116 µM)	CC(=O)NC[C@H]1CN(c2ccc(N3CCN(C(=O)CCCCC#Cc4cccc(CN)c4)CC3)c(F)c2)C(=O)O1 [Compound 32, N-({(5S)-3-[4-(4-{7-[3-(aminomethyl)phenyl]hept-6-ynoyl}-piperazin-1-yl)-3-fluorophenyl]-2-oxo-1,3-oxazolidin-5-yl}methyl)acetamide]
1 (≈ 1.92 µM)	4 (≈ 7.67 µM)	16 (≈ 30.7 µM)	CC(=O)NC[C@H]1CN(c2ccc(N3CCN(C(=O)CCC#Cc4cccc(CN)c4)CC3)c(F)c2)C(=O)O1 [Compound 33, N-({(5S)-3-[4-(4-{5-[3-(aminomethyl)phenyl]pent-4-ynoyl}piperazin-1-yl)-3-fluorophenyl]-2-oxo-1,3-oxazolidin-5-yl}-methyl)acetamide]

The next lines start with the molecule.

Structure (SMILES)	MIC (SPNE 9912) [µg/mL]	MIC (SAUR 9213) [µg/mL]	MIC (HINF 30063) [µg/mL]
CCC(=O)NC[C@H]1CN(c2ccc(C3(C)CN(C(=O)CCCC#Cc4cccc(CN)c4)C3)cc2)C(=O)O1 [Compound 16, N-({(5S)-3-[4-(1-{6-[3-(aminomethyl)phenyl]hex-5-ynoyl}-3-methylazetidin-3-yl)phenyl]-2-oxo-1,3-oxazolidin-5-yl}methyl)propan-amide]	2 (≈ 3.87 µM)	16 (≈ 31 µM)	16 (≈ 31 µM)
COC(=O)[C@@H](N)Cc1ccc(C#CCCC(=O)N2CCN(c3ccc(N4C[C@H](CNC(C)=O)OC4=O)cc3F)CC2)cc1 [Compound 21, methyl 4-{5-[4-(4-{(5S)-5-[(acetylamino)methyl]-2-oxo-1,3-oxazolidin-3-yl}-2-fluorophenyl)piperazin-1-yl]-5-oxopent-1-ynyl}-L-phenylalaninate]	4 (≈ 6.74 µM)	32 (≈ 53.9 µM)	> 64
CC(=O)NC[C@H]1CN(c2ccc(N3CCN(C(=O)CCC#Cc4c[nH]c(=O)[nH]c4=O)CC3)c(F)c2)C(=O)O1 [Compound 22, N-{[(5S)-3-(4-{4-[5-(2,4-dioxo-1,2,3,4-tetrahydropyrimidin-5-yl)pent-4-ynoyl]piperazin-1-yl}-3-fluorophenyl)-2-oxo-1,3-oxazolidin-5-yl]methyl}acetamide]	4 (≈ 7.6 µM)	32 (≈ 60.8 µM)	32 (≈ 60.8 µM)
CC(=O)NC[C@H]1CN(c2ccc(N3CCN(C(=O)CCCCC#Cc4cccc(O)c4)CC3)c(F)c2)C(=O)O1 [Compound 25, N-{[(5S)-3-(3-fluoro-4-{4-[7-(3-hydroxyphenyl)hept-6-ynoyl]piperazin-1-yl}phenyl)-2-oxo-1,3-oxazolidin-5-yl]methyl}acetamide]	2 (≈ 3.73 µM)	8 (≈ 14.9 µM)	> 64
CC(=O)NC[C@H]1CN(c2ccc(N3CCN(C(=O)CCCC#Cc4cccc(O)c4)CC3)c(F)c2)C(=O)O1 [Compound 27, N-{[(5S)-3-(3-fluoro-4-{4-[6-(3-hydroxyphenyl)hex-5-ynoyl]piperazin-1-yl}phenyl)-2-oxo-1,3-oxazolidin-5-yl]methyl}acetamide]	1 (≈ 1.91 µM)	8 (≈ 15.3 µM)	> 64
CC(=O)NC[C@H]1CN(c2ccc(N3CCN(C(=O)CCC#Cc4cccc(O)c4)CC3)c(F)c2)C(=O)O1 [Compound 29, N-{[(5S)-3-(3-fluoro-4-{4-[5-(3-hydroxyphenyl)pent-4-ynoyl]piperazin-1-yl}phenyl)-2-oxo-1,3-oxazolidin-5-yl]methyl}acetamide]	1 (≈ 1.97 µM)	4 (≈ 7.87 µM)	> 64
CC(=O)NC[C@H]1CN(c2ccc(N3CCN(C(=O)CCC#Cc4ccc(O)cc4)CC3)c(F)c2)C(=O)O1 [Compound 30, N-{[(5S)-3-(3-fluoro-4-{4-[5-(4-hydroxyphenyl)pent-4-ynoyl]piperazin-1-yl}phenyl)-2-oxo-1,3-oxazolidin-5-yl]methyl}acetamide]	1 (≈ 1.97 µM)	4 (≈ 7.87 µM)	64 (≈ 126 µM)
C#CCCCCC(=O)N1CCN(c2ccc(N3C[C@H](CNC(C)=O)OC3=O)cc2F)CC1 [Compound 31, N-({(5S)-3-[3-fluoro-4-(4-hept-6-ynoylpiperazin-1-yl)phenyl]-2-oxo-1,3-oxazolidin-5-yl}methyl)acetamide]	1 (≈ 2.25 µM)	4 (≈ 9 µM)	64 (≈ 144 µM)
